In the assay the target is recombinant MDA enzyme (melamine deaminase, Tri A) (Paracidovorax citrulli, UniProt Q9EYU0). As to the kind of experiment: Enzymatic detection of melamine in microtiter plates (MDA-mediated conversion to ammonia, indophenol colour). The format is biochemical, Pseudomonas sp. strain NRRL B-12227. The note with it: melamine (1000 ppm stock) and MDA enzyme diluted in 0.1 M Na-MOPS pH 7, overnight (about 12 hours), room temperature; salicylate/nitroprusside and NaOH/hypochlorite reagents; FIG. 2. The source says: The TriA gene encoding the melamine deaminase enzyme was inserted into the multiple cloning site region of the pET 24b bacterial expression plasmid. This subcloning strategy places the gene under the transcriptional regulation of the T7 RNA polymerase and fuses a His6 peptide tag onto the C-terminus of the protein to facilitate purification. We expressed the protein (MW about 50 kDa) in E. coli strain BL21 (DE3) and obtained significant amounts of soluble protein in the induced bacterial cultures. After disruption the lysed cell extract was passed over a Talon Cobalt column to bind the His6-tagged protein. After washing the column the bound protein was eluted from the column and dialyzed to remove imidazole.
Purified, desalted recombinant MDA enzyme (about 2 mg/ml in 0.1 M Na-MOPS buffer pH 7) and melamine (1000 ppm) were diluted into 0.1 M Na-MOPS buffer (pH 7) and incubated overnight (about 12 hours) at room temperature. Reaction aliquots were removed and tested for the production of ammonia by mixing the samples with salicylate/nitroprusside and NaOH/hypochlorite reagents in 96 well microtiter plates.

The results in this text go back to patent publication US8637269B2, “Method for the detection of melamine” (Bioo Scientific Corporation, priority 2009, dated 2014).

recombinant MDA enzyme (melamine deaminase, Tri A), sequence (Q9EYU0 whole entry): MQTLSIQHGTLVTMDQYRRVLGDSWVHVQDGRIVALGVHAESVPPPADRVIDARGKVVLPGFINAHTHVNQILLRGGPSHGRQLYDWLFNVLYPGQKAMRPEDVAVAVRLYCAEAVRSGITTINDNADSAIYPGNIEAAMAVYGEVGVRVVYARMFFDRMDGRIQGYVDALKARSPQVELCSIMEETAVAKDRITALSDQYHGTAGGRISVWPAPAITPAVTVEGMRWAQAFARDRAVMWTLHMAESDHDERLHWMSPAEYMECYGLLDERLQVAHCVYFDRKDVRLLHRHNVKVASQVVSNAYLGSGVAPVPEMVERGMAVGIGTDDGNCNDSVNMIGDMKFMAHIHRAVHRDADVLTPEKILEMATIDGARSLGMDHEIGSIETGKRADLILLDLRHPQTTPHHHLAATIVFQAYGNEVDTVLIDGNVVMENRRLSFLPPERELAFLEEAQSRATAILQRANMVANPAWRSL

As for `Nc1nc(N)nc(N)n1` [melamine], the “color change indicating MDA-mediated conversion of melamine to ammonia” value is recorded as “strong color change”.
